Laboratory results taken from patent publication US20230000813A1, “COMPOUND FOR THE TREATMENT OF BOVINE OR SWINE RESPIRATORY DISEASE” (Intervet Inc., priority 2016, published 2023).
Values after ≈ are worked out from the molar mass of the structure shown. Read-outs that look alike come from different tables or passages of the source.

What was measured:
Type in all cases: cell-based
[1] = tested on: Acinetobacter baumanii AB 16496 (ATCC 19606, reference strain); assay: MIC, broth-microdilution (CLSI VET01-A4); conditions: strain AB 16496
Procedure, shortened: (§1)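 Broth microdilution per CLSI VET01-A4 with doubling dilution series of compound. MIC taken as lowest concentration giving no visible turbidity by unaided eye, interpreted per CLSI VET01-S3.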

[2] = tested on: Acinetobacter baumanii AB 15919 (IV369-2012, dermatitis field isolate); assay: MIC, broth-microdilution (CLSI VET01-A4); conditions: strain AB 15919
Procedure, shortened: as §1

[3] = tested on: Staphylococcus aureus SA 5816 (2139, mastitis field isolate); assay: MIC, broth-microdilution (CLSI VET01-A4); conditions: strain SA 5816
Procedure, shortened: as §1

[4] = tested on: Pasteurella multocida PM 14426 (0006-439, BRD field isolate, macrolide-resistant); assay: MIC, broth-microdilution (CLSI VET01-A4); conditions: strain PM 14426, macrolide-resistant
Procedure, shortened: as §1

[5] = tested on: Mannheimia haemolytica MH 12180 (KLI-02944, BRD field isolate); assay: MIC, broth-microdilution (CLSI VET01-A4); conditions: strain MH 12180
Procedure, shortened: as §1

[6] = tested on: Staphylococcus aureus SA 6114 (ATCC 29213, reference strain); assay: MIC, broth-microdilution (CLSI VET01-A4); conditions: strain SA 6114
Procedure, shortened: as §1

[7] = tested on: 15 isolates of H. parasuis; assay: MIC50/MIC90, agar-dilution method (GC agar base); conditions: Haemophilus parasuis
Method: The in vitro activity of 3 representative compounds of this invention against 15 isolates of H. parasuis was determined. All strains were isolated from the respiratory tract of swine in different European countries The MICs for all isolates were determined by using the agar-dilution method according to CLSI document VET01-A4 [1]with the following modification: GC agar base was used instead of Mueller-Hinton agar base for the preparation of the agar-dilution plates. Results were interpreted according to the CLSI document VET01-S3.

[8] = tested on: Mannheimia haemolytica MH 13065 (XB0446-6003.9, BRD field isolate); assay: MIC, broth-microdilution (CLSI VET01-A4)
Procedure, shortened: (§2)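 MIC read by eye as lowest compound concentration without visible growth (no turbidity), interpreted per CLSI VET01-S3. Doubling-dilution broth-microdilution trays, run according to CLSI VET01-A4.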

[9] = tested on: Mannheimia haemolytica MH 13093 (XB0472-6014.1, BRD field isolate); assay: MIC, broth-microdilution (CLSI VET01-A4)
Procedure, shortened: as §2

[10] = tested on: 40 isolates of Mannheimia (M.) haemolytica; assay: MIC50/MIC90, broth-microdilution, European respiratory tract isolates
Procedure, shortened: (§3)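 Isolates came from the respiratory tract of diseased swine and cattle in several European countries and were epidemiologically unrelated. MICs were determined by broth microdilution with doubling dilutions per CLSI VET01-A4, interpreted per VET01-S3. MIC is the lowest concentration with no visible turbidity.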

[11] = tested on: 20 isolates of Bordetella (B.) bronchiseptica; assay: as above
Procedure, shortened: as §3

[12] = tested on: 40 isolates of Pasteurella (P.) multocida; assay: as above
Procedure, shortened: as §3

[13] = tested on: 20 isolates of Actinobacillus (A.) pleuropneumoniae; assay: as above
Procedure, shortened: as §3

[14] = tested on: 20 isolates of Histophilus (H.) somni; assay: as above
Procedure, shortened: as §3

[15] = tested on: Pasteurella multocida PM 6267 (P 2225 (L386), reference strain, mouse infection strain); assay: MIC, broth-microdilution (CLSI VET01-A4)
Procedure, shortened: (§4)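 Compounds were tested in microdilution trays as twofold serial dilutions. The MIC was taken as the lowest concentration with no turbidity visible to the unaided eye, and results were interpreted per CLSI VET01-S3.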

[16] = tested on: Mannheimia haemolytica MH 10720 (154, BRD field isolate); assay: MIC, broth-microdilution (CLSI VET01-A4)
Procedure, shortened: as §4

[17] = tested on: Mannheimia haemolytica MH 6374 (ATCC 33396, reference strain); assay: MIC, broth-microdilution (CLSI VET01-A4)
Procedure, shortened: as §4

[18] = tested on: Mannheimia haemolytica MH 12587 (1071, BRD field isolate, macrolide-resistance: erm+, E+); assay: MIC, broth-microdilution (CLSI VET01-A4)
Procedure, shortened: as §4

[19] = tested on: Mannheimia haemolytica MH 6357 (M7/2, reference strain, cattle infection strain); assay: MIC, broth-microdilution (CLSI VET01-A4)
Procedure, shortened: as §4

[20] = tested on: Pasteurella multocida PM 12080 (IV102277-0093, BRD field isolate); assay: MIC, broth-microdilution (CLSI VET01-A4)
Procedure, shortened: as §4

[21] = tested on: Pasteurella multocida PM 6391 (ATCC 43137, reference strain); assay: MIC, broth-microdilution (CLSI VET01-A4); conditions: strain PM 6391
Procedure, shortened: as §4

[22] = tested on: Pasteurella multocida PM 10775 (080130003051, BRD field isolate); assay: MIC, broth-microdilution (CLSI VET01-A4)
Procedure, shortened: as §4

SMILES: CC(C)(N)C(NC(=O)c1ccc(C#Cc2ccc(CNCc3ccncc3)cc2)cc1)C(=O)NO (centres unmarked) [C. 320]
- MIC [1]: >16 µg/mL
- MIC [2]: 16 µg/mL (≈ 33.9 µM)
- MIC [3]: >16 µg/mL
- MIC [4]: ≤0.016 µg/mL
- MIC [5]: 0.5 µg/mL (≈ 1.06 µM)
- MIC [6]: >16 µg/mL
- MIC50 [7]: 2 µg/mL (≈ 4.24 µM)
- MIC90 [7]: 4 µg/mL (≈ 8.48 µM)
- MIC [8]: 0.8 µM (≈ 0.377 µg/mL)
- MIC [9]: 1.6 µM (≈ 0.754 µg/mL)
- MIC50 [10]: 0.5 µg/mL (≈ 1.06 µM)
- MIC90 [10]: 0.5 µg/mL (≈ 1.06 µM)
- MIC50 [11]: 2 µg/mL (≈ 4.24 µM)
- MIC90 [11]: 2 µg/mL (≈ 4.24 µM)
- MIC50 [12]: ≤0.016 µg/mL
- MIC90 [12]: 0.032 µg/mL (≈ 0.0679 µM)
- MIC50 [13]: 0.5 µg/mL (≈ 1.06 µM)
- MIC90 [13]: 0.5 µg/mL (≈ 1.06 µM)
- MIC50 [14]: 0.063 µg/mL (≈ 0.134 µM)
- MIC90 [14]: 0.125 µg/mL (≈ 0.265 µM)
- MIC PM 6267 ([15]; Pasteurella multocida PM 6267): <=0.1 μM
- MIC ([15]; strain PM 6267): ≤0.016 µg/mL
- MIC ([16]; Mannheimia haemolytica MH 10720, read-out: MIC MH 10720): 0.4 µM
- MIC ([16]; strain MH 10720): 0.25 µg/mL
- MIC ([17]; Mannheimia haemolytica MH 6374, read-out: MIC MH 6374): 0.8 µM
- MIC ([17]; strain MH 6374): 0.25 µg/mL
- MIC MH 12587 ([18]; Mannheimia haemolytica MH 12587, macrolide-resistant): 1.6 µM (≈ 0.754 µg/mL)
- MIC ([18]; strain MH 12587, macrolide-resistant): 0.5 µg/mL (≈ 1.06 µM)
- MIC ([19]; Mannheimia haemolytica MH 6357, read-out: MIC MH 6357): 0.8 µM
- MIC ([19]; strain MH 6357): 0.5 µg/mL
- MIC PM 12080 ([20]; Pasteurella multocida PM 12080): <=0.1 μM
- MIC ([20]; strain PM 12080): ≤0.016 µg/mL
- MIC [21]: 0.032 µg/mL (≈ 0.0679 µM)
- MIC PM 10775 ([22]; Pasteurella multocida PM 10775): <=0.1 μM
- MIC ([22]; strain PM 10775): ≤0.016 µg/mL
